The subject of this assay is 5-hydroxytryptamineor histamine induced bronchoconstriction. Put plainly: Inhibition of 5-hydroxytryptamine or histamine induced bronchoconstriction (Konzett-Rossler preparation). Particulars: Cavia porcellus, iv, anaesthetised artificially respired guinea-pig. It is filed as in vivo. The source says: The compounds are examined for their ability to inhibit 5-hydroxytryptamineor histamine induced bronchoconstriction in the anaesthetised artificially respired guinea-pig (Konzett-Rossler preparation).
The ED50 values (μg/kg, i.v.) for inhibition of bronchoconstriction for a variety of the triazolidine-3,5-diones are given in Table 7.

For the molecule `COC(=O)CCCCCCn1c(=O)n(C)c(=O)n1CCC(C)(O)C1CCCCC1` (stereo not shown) [Compound 33], the median effective dose (ED50) (as a rule, the midpoint of the dose-response relation) is 2.6 µg/kg.

For the molecule `CCCCCCC(C)(O)CCn1c(=O)n(C)c(=O)n1CCCCCCC(=O)OC` (stereo not shown) [Compound 29, 1-(6'-methoxycarbonyl-n-hexyl-)-2-(3"-hydroxy-3"-methyl-n-nonyl)-4-methyl-1,2,4-triazolidine-3,5-dione], the ED50 turned out to be 2.6 µg/kg.

On to `COC(=O)CCCCCCn1c(=O)n(C)c(=O)n1CCC(C)(O)Cc1ccccc1` (stereo not shown) [Compound 31], for which the ED50 is 37 µg/kg.

With `CCCCCCC(C)(O)CCn1c(=O)n(C)c(=O)n1CC=CCCCC(=O)OC` (stereo not shown) [Compound 43, 1-(6'-methoxycarbonyl-n-hex-2-enyl)-2-(3"-hydroxy-3"-methyl-n-nonyl)-4-methyl-1,2,4-triazolidine-3,5-dione], the ED50 was found to be 1.9 µg/kg. Compared with the last molecule, the ED50 is about 19-fold lower.

Molecule `CCCCC(C)C(C)(O)CCn1c(=O)n(C)c(=O)n1CCCCCCC(=O)OC` (stereo not shown) [Compound 32] displayed an ED50 of 0.74 µg/kg.

On to `CCCCCC(O)CCn1c(=O)n(C)c(=O)n1CCCCCCC(=O)O` (stereo not shown) [Compound 24, 1-(6'-Carboxy-n-hexyl)-2-(3"-hydroxy-n-octyl)-4-methyl-1,2,4-triazolidine-3,5-dione], for which the 50% effect level (ED50) was put at a dose of 4 µg/kg. This ED50 lies about 5.4-fold higher than the previous one.

In the case of `CCCCCC(O)CCn1c(=O)n(C)c(=O)n1CCCCCCC(=O)OCC` (stereo not shown) [Compound 21, 1-(6'-Ethoxycarbonyl-n-hexyl)-2-(3"-hydroxy-n-octyl)-4-methyl-1,2,4-triazolidine-3,5-dione], the ED50 was determined as 3.4 µg/kg.

The values are drawn from US4460595A, “Using urazole analogs of prostaglandins for bronchodilation” (Beecham Group Limited, priority 1976, dated 1984).
